Source: patent publication US6620801B2, “17β-amino and hydroxylamino-11β-arylsteroids and their derivatives having agonist or antagonist hormonal properties” (Research Triangle Institute, priority 1998, dated 2003)

Tests used:
[1] = target: T1, human progesterone hormone receptor (Homo sapiens, UniProt P06401); assay: Receptor binding, inhibition of [3H]-R5020 binding in T-47D cytosol; settings: cytosol from human T-47D breast cells, 0.4 nM [3H]-R5020, 4 hours at 4° C.; read-out: Relative Binding Affinity hPR IC50
T1 construct: The receptor was obtained in cytosol from human T-47D breast cells and [^3H]-R5020 was used as the radioligand; endogenous in cells; host or cells: human T-47D breast cells (cytosol, 34,000 x g supernatant)
T1 sequence (P06401 1-933): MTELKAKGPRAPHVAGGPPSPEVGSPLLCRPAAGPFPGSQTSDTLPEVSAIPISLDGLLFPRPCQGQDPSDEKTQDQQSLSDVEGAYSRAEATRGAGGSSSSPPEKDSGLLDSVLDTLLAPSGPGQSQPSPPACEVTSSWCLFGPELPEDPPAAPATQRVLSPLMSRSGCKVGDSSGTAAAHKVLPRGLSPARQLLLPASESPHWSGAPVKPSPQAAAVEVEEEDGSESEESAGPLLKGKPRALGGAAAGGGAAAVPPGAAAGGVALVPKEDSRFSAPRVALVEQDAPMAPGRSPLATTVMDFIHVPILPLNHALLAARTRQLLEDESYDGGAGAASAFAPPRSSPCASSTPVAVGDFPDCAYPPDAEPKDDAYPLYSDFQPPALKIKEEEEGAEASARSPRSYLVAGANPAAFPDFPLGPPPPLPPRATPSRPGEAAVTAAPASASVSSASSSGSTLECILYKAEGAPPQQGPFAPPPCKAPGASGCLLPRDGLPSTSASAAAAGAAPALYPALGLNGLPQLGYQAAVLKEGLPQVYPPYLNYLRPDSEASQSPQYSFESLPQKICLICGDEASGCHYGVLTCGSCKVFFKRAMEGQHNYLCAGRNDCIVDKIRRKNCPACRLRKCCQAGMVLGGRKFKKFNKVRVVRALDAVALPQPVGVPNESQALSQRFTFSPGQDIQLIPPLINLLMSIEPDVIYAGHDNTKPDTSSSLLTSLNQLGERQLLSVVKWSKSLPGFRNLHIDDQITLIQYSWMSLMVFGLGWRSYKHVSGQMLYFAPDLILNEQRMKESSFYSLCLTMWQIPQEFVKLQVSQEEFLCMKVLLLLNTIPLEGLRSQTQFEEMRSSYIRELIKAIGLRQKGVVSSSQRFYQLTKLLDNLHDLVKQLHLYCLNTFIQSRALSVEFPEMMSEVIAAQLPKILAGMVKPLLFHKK
Experimental: The receptor was obtained in cytosol from human T-47D breast cells and [^3H]-R5020 was used as the radioligand. T47D cells (1 billion/ml) were homogenized in TEDG buffer (10 mM Tris, 1.5 mM EDTA, 1 mM dithiothreitol, 1 mM sodium molybdate, and 10% glycerol) using a Dounce pestle A, and the homogenate was centrifuged at 34,000×g for 1 hour. The supernatant was stored at −80° C. An aliquot of receptor preparation was combined with test compound, 0.4 nM [^3H]-R5020, and TEDG buffer to a final volume of 150 μL and incubated for 4 hours at 4° C. in microtiter plates. At the end of incubation 40 μL 40% polyethylene glycol and 15 μL 1% human gamma globulin was added to the incubate and the contents of each well were harvested onto double thick B filter mats (Wallac LKB) using a TomTec harvester. A film of Meltilux scintillant wax was applied to the dried filter mats and the mats were counted in a scintillation counter to determine inhibition of [^3H]-R5020 binding. Data are expressed as IC50 values, i.e., the concentration of compound that inhibits radioligand binding by 50%.

[2] = tested on: rabbits; assay: McGinty test (progestational/agonist activity, McPhail score); type: in vivo; parameters: McPhail Index, McGinty Assay (Agonist): scale not given here; settings: rabbit; for McPhail Index, McGinty Assay (Agonist): test compound alone
Text: (§1) Results were scored according to McPhail (McPhail, J. Physiol., 83: 146 (1934)). These are standard procedures well-known to those skilled in the art. The results of these assays are shown in Tables 2 (agonist activity) and 3 (antagonist activity). […] Some compounds were extremely potent in this regard.

[3] = tested on: rabbits; assay: Anti-McGinty test (antiprogestational/antagonist activity, test compound plus progesterone, McPhail score); type: in vivo; parameters: McPhail Index, Anti-McGinty Assay (Antagonist): scale not given here; settings: rabbit; for McPhail Index, Anti-McGinty Assay (Antagonist): test compound plus progesterone; for Blocking the action of progesterone in the anti-McGinty assay: dose of only 0.3 μg
Text: as §1

[4] = tested on: immature female rabbits; assay: Anti-estrogenic activity, uterine weight in estradiol-treated immature female rabbits; type: in vivo, rabbit; settings: ± S.E., no estradiol 216.7±37.2 mg

IC50 [1] [nM] | SMILES | McPhail Index, McGinty Assay (Agonist) ([2]; dose 0.3 micrograms) | McPhail Index, McGinty Assay (Agonist) ([2]; dose 3 micrograms) | McPhail Index, McGinty Assay (Agonist) ([2]; dose 30 micrograms) | McPhail Index, Anti-McGinty Assay (Antagonist) ([3]; dose 0.3 micrograms) | McPhail Index, Anti-McGinty Assay (Antagonist) ([3]; dose 3 micrograms) | McPhail Index, Anti-McGinty Assay (Antagonist) ([3]; dose 30 micrograms) | Blocking the action of progesterone in the anti-McGinty assay [3] | Uterine weight ([4]; compound orally at 10 mg/day concurrently with 5 μg of estradiol per day) [mg] | Progestational (agonist) activity in the McGinty assay ([2]; at high doses) | Progestational (agonist) activity in the anti-McGinty assay ([3]; at the highest dose) | Uterine weight ([4]; estradiol alone, 5 μg per day) [mg]
5.2 | CC1CCC2(CCC3C4CCC5=CC(=O)CCC5=C4C(c4ccc(N(C)C)cc4)CC32C)N1O (stereo not drawn) [11β-[4-(N,N-Dimethylamino)phenyl]-1′-hydroxy-5′-methyl-spiro[estra-4,9-dien-17β,2′-pyrrolidine]-3-one] | 0 ± 0 | 0 ± 0 | 0 ± 0 | 2.1 ± 0.3 | 2.4 ± 0.4 | 0.7 ± 0.4 | – | – | – | – | –
3.5 | CN(C)c1ccc(C2CC3(C)C(CCC34CCCN4O)C3CCC4=CC(=O)CCC4=C23)cc1 (stereo not drawn) [11β-[4-(N,N-Dimethylamino)phenyl]-1′-hydroxy-spiro[estra4,9-dien-17β,2′-pyrrolidine]-3-one] | 0 ± 0 | 0 ± 0 | 0 ± 0 | 2.7 ± 0.0 | 2.3 ± 0.5 | 0.07 ± 0.07 | – | – | – | – | –
0.7 | CC#C[C@]1(NC=O)CC[C@H]2[C@@H]3CCC4=CC(=O)CCC4=C3[C@@H](c3ccc(N(C)C)cc3)C[C@@]21C [11β-[4-(N,N-Dimethylamino)phenyl]-17β-(N-formamido)-17α-(1-propynyl)estra-4,9-dien-3-one] | 0 ± 0 | 0 ± 0 | 0 ± 0 | 0 ± 0 | 0 ± 0 | 0 ± 0 | completely effective in blocking the action of progesterone | 716 ± 96.6 | – | – | –
7.1 | CC#CC1(N(C)O)CCC2C3CCC4=CC(=O)CCC4=C3C(c3ccc(N(C)C)cc3)CC21C (stereo not drawn) [11β-[4-(N,N-Dimethylamino)phenyl]-17β-(N-hydroxy-N-methylamino)-17α-(1-propynyl)estra-4,9-dien-3-one] | 0 ± 0 | 0 ± 0 | 0 ± 0 | 2.0 ± 0.2 | 0 ± 0 | 0 ± 0 | – | – | – | – | –
14.3 | CC#C[C@]1(NO)CC[C@H]2[C@@H]3CCC4=CC(=O)CCC4=C3[C@@H](c3ccc(N(C)C)cc3)C[C@@]21C [11β-[4-(N,N-Dimethylamino)phenyl]-17β-(N-hydroxylamino)-17α-(1-propynyl)estra-4,9-dien-3-one] | 0 ± 0 | 0 ± 0 | 0.7 ± 0.0 | 0 ± 0 | 0 ± 0 | 2.5 ± 0.4 | completely effective in blocking the action of progesterone | – | some progestational (agonist) activity | some progestational (agonist) activity | –
1.3 | CC#CC1(NC(C)=O)CCC2C3CCC4=CC(=O)CCC4=C3C(c3ccc(N(C)C)cc3)CC21C (stereo not drawn) [17β-(N-Acetamido)-11β-[4-(N,N-dimethylamino)phenyl]-17α-(1-propynyl)estra-4,9-dien-3-one] | 0 ± 0 | 0 ± 0 | 0 ± 0 | 1.8 ± 0.3 | 0.1 ± 0.1 | 0 ± 0 | – | – | – | – | –
8.3 | CC#C[C@]1(N)CC[C@H]2[C@@H]3CCC4=CC(=O)CCC4=C3[C@@H](c3ccc(N(C)C)cc3)C[C@@]21C [17β-Amino-11β-[4-(N,N-dimethylamino)phenyl]-17α-(1-propynyl)estra-4,9-dien-3-one] | 0 ± 0 | 0 ± 0 | 0 ± 0 | 1.6 ± 0.3 | 0.2 ± 0.1 | 0 ± 0 | – | – | – | – | –
– | C[C@]12CC[C@@H]3c4ccc(O)cc4CC[C@H]3[C@@H]1CC[C@@H]2O [estradiol, reference compound] | – | – | – | – | – | – | – | – | – | – | 1337 ± 105
